Assays:
Format in all cases: functional, cell-based
HepG2 = test: Antiproliferative activity against human HepG2 cells after 48 hrs by MTT assay; details: HepG2, 48 h
PC-3 = test: Antiproliferative activity against human PC3 cells after 48 hrs by MTT assay; details: PC-3, 48 h
MCF7 = test: Antiproliferative activity against human MCF7 cells after 48 hrs by MTT assay; details: MCF7, 48 h
DU-145 = test: Antiproliferative activity against human DU145 cells after 48 hrs by MTT assay; details: DU-145, 48 h
BGC-823 = test: Antiproliferative activity against human BGC823 cells after 48 hrs by MTT assay; details: BGC-823, 48 h

Compound | IC50 (HepG2) | IC50 (PC-3) | IC50 (MCF7) | IC50 (DU-145) | IC50 (BGC-823)
COC(C)(C)CCC[C@@](C)(O)[C@H]1CC[C@]2(C)[C@@H]1[C@H](OC(=O)c1ccc([N+](=O)[O-])cc1)C[C@@H]1[C@@]3(C)CC[C@H](O)C(C)(C)[C@@H]3CC[C@]12C | > 50 µM | > 50 µM | > 50 µM | > 50 µM | > 50 µM
COC(C)(C)CCC[C@@](C)(O)[C@H]1CC[C@]2(C)[C@@H]1[C@H](OC(=O)/C=C/c1ccccc1)C[C@@H]1[C@@]3(C)CC[C@H](O)C(C)(C)[C@@H]3CC[C@]12C | > 50 µM | > 50 µM | > 50 µM | > 50 µM | > 50 µM
COC(C)(C)CCC[C@@](C)(O)[C@H]1CC[C@]2(C)[C@@H]1[C@H](OC(=O)c1ccccc1[N+](=O)[O-])C[C@@H]1[C@@]3(C)CC[C@H](OC(=O)c4ccccc4[N+](=O)[O-])C(C)(C)[C@@H]3CC[C@]12C | > 50 µM | > 50 µM | 37.2 µM | 29.7 µM | 48.6 µM
COC(C)(C)CCC[C@@](C)(O)[C@H]1CC[C@]2(C)[C@@H]1[C@H](OC(=O)c1ccc(F)cc1F)C[C@@H]1[C@@]3(C)CC[C@H](OC(=O)c4ccc(F)cc4F)C(C)(C)[C@@H]3CC[C@]12C | > 50 µM | 43.2 µM | > 50 µM | > 50 µM | 37.7 µM
COC(C)(C)CCC[C@@](C)(O)[C@H]1CC[C@]2(C)[C@@H]1[C@H](OC(=O)c1ccc(Br)cc1)C[C@@H]1[C@@]3(C)CC[C@H](O)C(C)(C)[C@@H]3CC[C@]12C | > 50 µM | > 50 µM | > 50 µM | > 50 µM | > 50 µM
COC(C)(C)CCC[C@@](C)(O)[C@H]1CC[C@]2(C)[C@@H]1[C@H](O)C[C@@H]1[C@@]3(C)CC[C@H](OC(=O)c4ccccc4C)C(C)(C)[C@@H]3CC[C@]12C | > 50 µM | > 50 µM | 37.6 µM | 44.3 µM | > 50 µM
COC(C)(C)CCC[C@@](C)(O)[C@H]1CC[C@]2(C)[C@@H]1[C@H](OC(=O)c1ccc(Br)cc1)C[C@@H]1[C@@]3(C)CC[C@H](OC(=O)c4ccc(Br)cc4)C(C)(C)[C@@H]3CC[C@]12C | > 50 µM | > 50 µM | > 50 µM | > 50 µM | > 50 µM
COC(C)(C)CCC[C@@](C)(O)[C@H]1CC[C@]2(C)[C@@H]1[C@H](OC(=O)c1cc([N+](=O)[O-])cc([N+](=O)[O-])c1)C[C@@H]1[C@@]3(C)CC[C@H](O)C(C)(C)[C@@H]3CC[C@]12C | > 50 µM | > 50 µM | > 50 µM | > 50 µM | > 50 µM
COC(C)(C)CCC[C@@](C)(O)[C@H]1CC[C@]2(C)[C@@H]1[C@H](OC(=O)c1ccc(I)cc1)C[C@@H]1[C@@]3(C)CC[C@H](OC(=O)c4ccc(I)cc4)C(C)(C)[C@@H]3CC[C@]12C | > 50 µM | > 50 µM | > 50 µM | > 50 µM | > 50 µM
COC(C)(C)CCC[C@@](C)(O)[C@H]1CC[C@]2(C)[C@@H]1[C@H](OC(=O)/C=C/c1ccc(F)cc1)C[C@@H]1[C@@]3(C)CC[C@H](O)C(C)(C)[C@@H]3CC[C@]12C | > 50 µM | > 50 µM | > 50 µM | > 50 µM | > 50 µM

Molecules with a lower IC50 (HepG2), results first:

IC50 (HepG2) | IC50 (PC-3) | IC50 (MCF7) | IC50 (DU-145) | IC50 (BGC-823) | Compound
18.9 µM | 39.9 µM | 15.6 µM | 28.7 µM | 34.4 µM | COC(C)(C)CCC[C@@](C)(O)[C@H]1CC[C@]2(C)[C@@H]1[C@H](O)C[C@@H]1[C@@]3(C)CC[C@H](OC(=O)c4cc(F)ccc4Br)C(C)(C)[C@@H]3CC[C@]12C
26.7 µM | 23.5 µM | 20.8 µM | 33.1 µM | 25.8 µM | COC(C)(C)CCC[C@@](C)(O)[C@H]1CC[C@]2(C)[C@@H]1[C@H](O)C[C@@H]1[C@@]3(C)CC[C@H](OC(=O)/C=C/c4ccc(Cl)cc4)C(C)(C)[C@@H]3CC[C@]12C
41.8 µM | > 50 µM | > 50 µM | 34.6 µM | > 50 µM | COC(C)(C)CCC[C@@](C)(O)[C@H]1CC[C@]2(C)[C@@H]1[C@H](OC(=O)/C=C/c1ccc(F)cc1)C[C@@H]1[C@@]3(C)CC[C@H](OC(=O)/C=C/c4ccc(F)cc4)C(C)(C)[C@@H]3CC[C@]12C
19.2 µM | 22 µM | 15.6 µM | 18.5 µM | 28.1 µM | COC(C)(C)CCC[C@@](C)(O)[C@H]1CC[C@]2(C)[C@@H]1[C@H](O)C[C@@H]1[C@@]3(C)CC[C@H](OC(=O)c4ccccc4Cl)C(C)(C)[C@@H]3CC[C@]12C
43.6 µM | 38.4 µM | 41.7 µM | 22.6 µM | 36.1 µM | COC(C)(C)CCC[C@@](C)(O)[C@H]1CC[C@]2(C)[C@@H]1[C@H](O)C[C@@H]1[C@@]3(C)CC[C@H](OC(=O)c4cc(Br)cc(Br)c4)C(C)(C)[C@@H]3CC[C@]12C
10.3 µM | 13.5 µM | 6.4 µM | 8.6 µM | 5.3 µM | COC(C)(C)CCC[C@@](C)(O)[C@H]1CC[C@]2(C)[C@@H]1[C@H](O)C[C@@H]1[C@@]3(C)CC[C@H](OC(=O)c4cccc(F)c4)C(C)(C)[C@@H]3CC[C@]12C
41.5 µM | > 50 µM | 36.4 µM | > 50 µM | > 50 µM | COC(C)(C)CCC[C@@](C)(O)[C@H]1CC[C@]2(C)[C@@H]1[C@H](OC(=O)c1ccc(Cl)cc1)C[C@@H]1[C@@]3(C)CC[C@H](OC(=O)c4ccc(Cl)cc4)C(C)(C)[C@@H]3CC[C@]12C

Reference: ChEMBL document CHEMBL4371049, “Semi-synthesis and anti-tumor activity of novel 25-OCH3-PPD derivatives incorporating aromatic moiety” (Bioorg Med Chem Lett, 2019)
